Here are results for 4 molecules from article PMC8401042, “Non-Toxic Dimeric Peptides Derived from the Bothropstoxin-I Are Potent SARS-CoV-2 and Papain-like Protease Inhibitors” (Molecules, 2021).

Experiment [1] deals with T1, SARS-CoV-2 PLpro (Severe acute respiratory syndrome coronavirus 2, UniProt P0DTD1). Briefly: Microscale thermophoresis (MST) binding assay. The note with it: 100 nM labelled PLpro, peptides 0.015 to 500 µM, 50 mM HEPES pH 7.5, 100 mM NaCl, 2 mM DTT, DMSO 5%; triplicate, Hill fit. For orientation: Microscale thermophoresis detects binding through changes in fluorescence in a small temperature gradient.

A further experiment relates to SARS-CoV-2. The note with it: 24 h, 100 µM.
Experiment [2] addresses T1, SARS-CoV-2 PLpro. Briefly: SARS-CoV-2 PLpro FRET enzyme inhibition assay. The class given is biochemical. The note with it: for inhibition at 10 µM: 10 µM peptide, 27 µM substrate, 37 °C.
In experiment [3] the target is SARS-CoV-2 Papain-like protease (PL^pro) (SARS-CoV-2) (UniProt P0DTD1).
The target is the same in experiment [4]. The source holds these as a separate data set.
Where [5] appears, read: 70 nM enzyme, 27 µM FRET substrate, 50 mM HEPES pH 7.5, 0.01% Triton X-100, 5 mM DTT, 30 min pre-incubation at 37 °C, Hill fit, two independent experiments, read-out: IC50 against PLpro.

Where two headings read alike, the source gives them in different places. Bridge positions count the residues as written; N and C are the ends. Square brackets hold non-standard residues; d marks the D form. Ends that are not written are not given here. Peptide text beside a SMILES is read from it. I, II: the chains in the order shown. Bounds are passed on as bounds.

Broadly, the Kd is the concentration at which binding is half-saturated. A low value points to tighter binding. By inhibition is commonly meant the relative decrease from the control value, in per cent. A low value points to little suppression. With `CC(C)C[C@H](NC(=O)[C@H](Cc1c[nH]cn1)NC(=O)[C@H](Cc1ccc(O)cc1)NC(=O)[C@H](CCCNC(=N)N)NC(=O)[C@H](Cc1ccc(O)cc1)NC(=O)[C@H](C)NC(=O)[C@@H](N)CCCCN)C(=O)N[C@@H](CCCCN)C(=O)N1CCC[C@H]1C(=O)N[C@@H](Cc1ccccc1)C(=O)NCCCC[C@H](NC(=O)[C@H](Cc1ccccc1)NC(=O)[C@@H]1CCCN1C(=O)[C@H](CCCCN)NC(=O)[C@H](CC(C)C)NC(=O)[C@H](Cc1c[nH]cn1)NC(=O)[C@H](Cc1ccc(O)cc1)NC(=O)[C@H](CCCNC(=N)N)NC(=O)[C@H](Cc1ccc(O)cc1)NC(=O)[C@H](C)NC(=O)[C@@H](N)CCCCN)C(N)=O` [A2] (I: H-KAYRYHLKPFK-NH2 / II: H-KAYRYHLKPF; amide I:11-II:C), the affinity at SARS-CoV-2 PLpro [1], expressed as Kd, was 7 ± 3 µM. In addition, the “SARS-CoV-2 % of inhibition at 100 µM” value in the experiment on SARS-CoV-2 was 10%. Besides, at SARS-CoV-2 PLpro [2] (setting [5]), the IC50 came to 2.4 ± 0.03 µM. Moreover, at SARS-CoV-2 PLpro [2] (70 nM enzyme), the inhibition at 10 µM was determined as 99%.

`CC(C)C[C@H](NC(=O)[C@H](C)NC(=O)[C@H](Cc1ccc(O)cc1)NC(=O)[C@H](CCCNC(=N)N)NC(=O)[C@H](Cc1ccc(O)cc1)NC(=O)[C@H](CCCCN)NC(=O)[C@@H](N)CCCCN)C(=O)N[C@@H](CCCCN)C(=O)N1CCC[C@H]1C(=O)N[C@@H](Cc1ccccc1)C(=O)NCCCC[C@H](NC(=O)[C@H](Cc1ccccc1)NC(=O)[C@@H]1CCCN1C(=O)[C@H](CCCCN)NC(=O)[C@H](CC(C)C)NC(=O)[C@H](C)NC(=O)[C@H](Cc1ccc(O)cc1)NC(=O)[C@H](CCCNC(=N)N)NC(=O)[C@H](Cc1ccc(O)cc1)NC(=O)[C@H](CCCCN)NC(=O)[C@@H](N)CCCCN)C(N)=O` [A6] (I: H-KKYRYALKPFK-NH2 / II: H-KKYRYALKPF; amide I:11-II:C): the Kd at SARS-CoV-2 PLpro [1] came out at 5 ± 3 µM. Besides, the “SARS-CoV-2 % of inhibition at 100 µM” value in the experiment with SARS-CoV-2 is 22%. At SARS-CoV-2 PLpro [2] (setting [5]), the IC50 stood at 1.8 ± 0.07 µM. This molecule displayed an inhibition at 10 µM on SARS-CoV-2 PLpro [2] (70 nM enzyme) of 97%.

Molecule `CC(C)C[C@@H](NC(=O)[C@@H](Cc1c[nH]cn1)NC(=O)[C@@H](Cc1ccc(O)cc1)NC(=O)[C@@H](CCCNC(=N)N)NC(=O)[C@@H](Cc1ccc(O)cc1)NC(=O)[C@@H](CCCCN)NC(=O)[C@H](N)CCCCN)C(=O)N[C@H](CCCCN)C(=O)N1CCC[C@@H]1C(=O)N[C@H](Cc1ccccc1)C(=O)NCCCC[C@@H](NC(=O)[C@@H](Cc1ccccc1)NC(=O)[C@H]1CCCN1C(=O)[C@@H](CCCCN)NC(=O)[C@@H](CC(C)C)NC(=O)[C@@H](Cc1c[nH]cn1)NC(=O)[C@@H](Cc1ccc(O)cc1)NC(=O)[C@@H](CCCNC(=N)N)NC(=O)[C@@H](Cc1ccc(O)cc1)NC(=O)[C@@H](CCCCN)NC(=O)[C@H](N)CCCCN)C(N)=O` [A12] (I: H-[dK][dK][dY][dR][dY][dH][dL][dK][dP][dF][dK]-NH2 / II: H-[dK][dK][dY][dR][dY][dH][dL][dK][dP][dF]; amide I:11-II:C; N-terminus assumed) showed a Kd on SARS-CoV-2 PLpro [1] of 1.6 ± 0.3 µM. Further, the “SARS-CoV-2 % of inhibition at 100 µM” value in the experiment with SARS-CoV-2 worked out at 69%. The molecule also came in with an inhibition at 10 µM at SARS-CoV-2 PLpro [2] (70 nM enzyme) of 96%. The IC50 on SARS-CoV-2 PLpro [2] (calculated from IC50 values, Figure 3A, read-out: pIC50 (−logIC50), PLpro (converted)) is 1.29 µM.

In turn, IFGAILPLALGALKNLIK-NH2 [Hylin a1] displayed an IC50 of inhibition of PL^pro activity (cleavage of a FRET peptide substrate) in experiment [3] of over 10 µM. Besides, the percent inhibition of PL^pro activity at 10 µM peptide in experiment [4] is 13%.
